This note sets out measurements from publication PMC9000480, “Enhancement of the Anti-Inflammatory Activity of NSAIDs by Their Conjugation with 3,4,5-Trimethoxybenzyl Alcohol” (Molecules, 2022).

Marks after values point to notes of the source that are not given here.

For data set [1], the system named is rat hepatic microsomal membranes. The experiment in a line: Fe(II)-ascorbate induced lipid peroxidation of rat hepatic microsomal membranes. Conditions: 1 mM, after 45 min of incubation. The method, then:
Enzymatically inactivated rat hepatic microsomal membranes, rich in polyunsaturated fatty acids, were used and peroxidation was induced by Fe(II)-ascorbate. Compounds 21 and 22, expected to exert antioxidant activity due to the tyrosine phenolic group, were tested.
The peroxidation of heat-inactivated (90°, 90 s) rat liver microsomal fraction was induced by ascorbic acid (0.2 mM) and ferrous sulphate (10 μΜ). The studied compounds, in dimethylsulfoxide, were added at 1 mM. Aliquots were taken from the incubation mixture (37 °C) for 45 min. Lipid peroxidation was assessed spectrophotometrically (535/600 nm) as 2-thiobarbituric acid reactive material.

Data set [2] concerns carrageenan-induced rat paw edema. The experiment in a line: carrageenan-induced rat paw edema. Format: in vivo. Conditions: i.p. 0.15 mmol/kg, 3.5 h post carrageenan, female rats, vs controls given carrageenan only; for inhibition in vivo at 150 µmol/kg: Rattus norvegicus, ip, 3.5 h. The protocol: Carrageenan-induced inflammation model has significant value for evaluating anti-inflammatory agents. Carrageenan administration causes an acute and local inflammatory response. In the early phase (0–1 h), bradykinin, histamine, tachykinins, complement and reactive oxygen and nitrogen species are involved, whereas prostaglandins and various cytokines such as IL-1β, TNF-α are released in the second phase, more than one hour after administration.
Total of 0.1 mL of an aqueous solution of carrageenan (1% w/v) was injected i.d. into the right hind paw of rats, with the left paw serving as control. The tested compounds (suspended in water with a few drops of Tween 80) were given i.p. (0.15 mmol/kg) 5 min before the carrageenan administration. After 3.5 h, the hind paws were excised and weighed separately. The produced edema was estimated as paw weight increase.
On the technique in general: The carrageenan paw model is a standard test of acute inflammation.

For a further data set, the target named is T1, soybean LOX (Glycine max, UniProt P08170).
T1 construct: purchased Sigma (St. Louis, MO, USA)
T1 sequence (P08170 1-839): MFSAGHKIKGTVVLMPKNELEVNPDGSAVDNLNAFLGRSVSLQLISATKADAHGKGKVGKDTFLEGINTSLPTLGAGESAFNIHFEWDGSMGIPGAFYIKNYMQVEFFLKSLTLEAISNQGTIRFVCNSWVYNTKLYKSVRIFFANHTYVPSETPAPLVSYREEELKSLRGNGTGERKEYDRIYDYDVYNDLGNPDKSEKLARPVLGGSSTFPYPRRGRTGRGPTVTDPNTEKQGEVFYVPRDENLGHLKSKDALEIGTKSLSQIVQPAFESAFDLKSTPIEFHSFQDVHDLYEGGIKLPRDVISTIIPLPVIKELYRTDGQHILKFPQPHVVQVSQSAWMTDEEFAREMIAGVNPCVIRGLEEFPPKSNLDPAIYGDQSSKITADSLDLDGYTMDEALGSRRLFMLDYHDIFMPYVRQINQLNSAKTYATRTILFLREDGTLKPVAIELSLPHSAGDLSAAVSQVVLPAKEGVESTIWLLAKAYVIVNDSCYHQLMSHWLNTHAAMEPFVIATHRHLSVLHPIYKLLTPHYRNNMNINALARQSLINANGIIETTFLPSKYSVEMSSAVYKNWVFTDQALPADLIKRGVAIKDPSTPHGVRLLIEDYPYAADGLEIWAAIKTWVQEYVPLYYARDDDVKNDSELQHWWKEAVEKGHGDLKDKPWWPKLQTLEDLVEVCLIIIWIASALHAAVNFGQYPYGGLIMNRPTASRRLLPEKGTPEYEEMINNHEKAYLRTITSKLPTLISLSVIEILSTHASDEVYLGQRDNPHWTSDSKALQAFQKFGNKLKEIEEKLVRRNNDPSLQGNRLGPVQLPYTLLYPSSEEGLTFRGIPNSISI
The experiment in a line: inhibition of soybean lipoxygenase. Format: biochemical. Conditions: for IC50: after 7 min of incubation, sodium linoleate 100 μM, pH 9.0, 28 °C; for % inhibition of lipoxygenase: highest soluble concentration. The method, then:
Soybean LOX, because of structural and functional similarities with mammalian LOXs, is commonly used for the study of anti-inflammatory agents.
The reaction mixture contained (final concentration) the test compounds, dissolved in ethanol (10–300 μM), or the solvent (control), soybean LOX, dissolved in 0.9% NaCl solution (250 u/mL) and sodium linoleate (100 μM), in Tris–HCl buffer, pH 9.0. […] For the estimation of the type of inhibition, the above experiments were repeated, using 1 mM sodium linoleate, which is higher than the saturating substrate concentration.

The subject of the next data set is T2, ovine COX-1.
T2 construct: purchased Cayman Chemical Co., Ann Arbor, MI, USA
The experiment in a line: COX Inhibitor Screening Assay kit, COX-1. Format: biochemical. The conditions noted are these: compound 0.05 μM, arachidonic acid 0.1 μM. The text has this:
[…]. κ-Carrageenan and lipoxygenase type I-B from soybean were purchased from Sigma (St. Louis, MO, USA). COX inhibition was estimated using the “COX Inhibitor Screening Assay” kit (Cayman Chemical Co., Ann Arbor, MI, USA). For the in vivo experiments, female Wistar rats (160–180 g, 4–5 months old) were kept in the Centre of the School of Veterinary Medicine (EL54 BIO42), Aristotelian University of Thessaloniki, which is registered by the official state veterinary authorities (presidential degree 56/2013, in harmonization with the European Directive 2010/63/EEC). The Animal Ethics Committee of the Prefecture of Central Macedonia (no. 270079/2500) approved the experimental protocols.
(§1) The effect of compounds on COX-1 and COX-2 activity was measured using a commercial kit and applying the instructions of the manufacturer. The kit uses ovine COX-1 and human recombinant COX-2 enzymes. The assay measures PGF2a produced by SnCl2 reduction of COX-derived PGH2. The prostanoid product was quantified via enzyme immunoassay using a broadly specific antibody that binds to all the major prostaglandin compounds.

A short description of data set [3]: preliminary stability in acetone-water (TLC). Format: physicochemical. Conditions: 4:1 acetone-water, 1 mM, 37 °C, up to 72 h. The method, then:
(§2) In a preliminary stability control experiment, compound 16, with the highest anti-inflammatory activity, was dissolved in an acetone-water mixture and incubated for 72 h at 37 °C. Samples were tested by thin layer chromatography (TLC) at the time of the preparation and after 2.5, 5, 24, 48, and 72 h. The same experiment was repeated, but plasma from a healthy rat was added, and tested by TLC at the time of preparation and after 24 h of incubation at 37 °C.
(§3) A solution of 16 in a 4:1 acetone–water mixture (1 mM) was prepared and 5 μL of this were applied on a TLC silica gel aluminum sheet and developed with petroleum ether-ethyl acetate (1:1), at the time of preparation and after 2.5, 5, 24, 48, and 72 h of incubation (37 °C). The same experiment was repeated, adding 1 mL of rat plasma. TLC was performed at the time of preparation and after 24 h.

Data set [4] is described as follows: preliminary stability with rat plasma (TLC). Type of data set: in vitro ADME. The conditions noted are these: acetone-water with rat plasma added, 37 °C, 24 h. The method, then: as §2, §3
The test system of the next data set is T3, human recombinant COX-2.
T3 construct: purchased Cayman Chemical Co., Ann Arbor, MI, USA
The experiment in a line: COX Inhibitor Screening Assay kit, COX-2. Format: biochemical. The conditions noted are these: compound 0.05 μM, arachidonic acid 0.1 μM. The protocol:
COX inhibition was estimated using the “COX Inhibitor Screening Assay” kit (Cayman Chemical Co., Ann Arbor, MI, USA).
as §1

`COc1cc(COC(=O)C(Cc2ccc(O)cc2)NC(=O)C(C)c2ccc(CC(C)C)cc2)cc(OC)c1OC` (stereo not shown) [Compound 21, 3,4,5-Trimethoxybenzyl3-(4-hydroxyphenyl)-2-(2(4-isobutylphenyl)propanamido) propanoate]: the melting point lay within 86 to 88 °C. Also, the “effect against lipid peroxidation” value in data set [1] is listed as “poor”. The compound further came in with an inhibition in vivo at 150 µmol/kg in data set [2] of 67%. Also, half-maximal inhibition at soybean LOX (IC50) required 64 µM. For the same compound, the “COX-1 % Inhibition” value in the data set on ovine COX-1 is on record as 51%.

The compound `COc1cc(COC(=O)CCNC(=O)C(C)c2cccc(C(=O)c3ccccc3)c2)cc(OC)c1OC` (stereo not shown) [Compound 16, 3,4,5-Trimethoxybenzyl 3-(2-(3-benzoylphenyl)propanamido)propanoate] displayed an inhibition in vivo at 150 µmol/kg in data set [2] of 91%. The “% Edema Inhibition” value in data set [2] is given as 91 *** %. Besides, the “stability (hydrolysis, TLC)” value in data set [3] and in data set [4] was “not hydrolyzed” in each case. For the same compound, the “% inhibition of lipoxygenase” value on soybean LOX (at 150 μΜ) was found to be 20%. The “COX-1 % Inhibition” value in the data set on ovine COX-1 turned out to be 28%.

As to `O=C(O)Cc1c[nH]c2ccccc12` [Indole-3-acetic acid, reference compound], in data set [2], the inhibition in vivo at 150 µmol/kg is 0% and the “% Edema Inhibition” value is “inactive”.

As for `CC(C)Cc1ccc(C(C)C(=O)O)cc1` (stereo not shown) [Ibuprofen, reference compound], in data set [2], the inhibition in vivo at 150 µmol/kg was 36% and the “% Edema Inhibition” value is 36 ** %. Further, the “COX-1 % Inhibition” value in the data set with ovine COX-1 came out at 68%.

In the case of `CC(C(=O)O)c1cccc(C(=O)c2ccccc2)c1` (stereo not shown) [Ketoprofen], in the data set with human recombinant COX-2, the “COX-2 % Inhibition” value stood at 49%. Moreover, the “COX-1 % Inhibition” value in the data set on ovine COX-1 is recorded as 94%.

`COc1cc(COC(=O)C(Cc2ccc(O)cc2)NC(=O)C(C)c2cccc(C(=O)c3ccccc3)c2)cc(OC)c1OC` (stereo not shown) [Compound 22, 3,4,5-Trimethoxybenzyl 2-(2-(3-benzoylphenyl)propanamido)-3-(4-hydroxyphenyl) propanoate] returned a melting point of 68 to 70 °C. Further, in data set [1], the “effect against lipid peroxidation” value is “poor”. Also, in data set [2], the inhibition in vivo at 150 µmol/kg was 59%. The same compound gave a half-inhibitory concentration (IC50) on soybean LOX of 85 µM.

`COc1ccc2cc(C(C)C(=O)N3CCCC3C(=O)OCc3cc(OC)c(OC)c(OC)c3)ccc2c1` (stereo not shown) [Compound 20, 3,4,5-Trimethoxybenzyl1-(2-(6-methoxynaphthalen-2-yl)propanoyl) pyrrolidine-2-carboxylate] gave a melting point of 50 to 53 °C. Also, the inhibition in vivo at 150 µmol/kg in data set [2] was 37%. Further, at soybean LOX (at 100 μΜ), the “% inhibition of lipoxygenase” value stood at 40%.

As to `COc1ccc2cc([C@H](C)C(=O)NCCC(=O)OCc3cc(OC)c(OC)c(OC)c3)ccc2c1` [Compound 17, (S)-3,4,5-trimethoxybenzyl 3-(2-(6-methoxynaphthalen-2-yl)propanamido)propanoate], the inhibition in vivo at 150 µmol/kg in data set [2] was 23%. Also, the IC50 against soybean LOX was determined as 41 µM.

`COC(=O)C(C)NC(=O)Cc1c[nH]c2ccccc12` (stereo not shown) [Compound 13a] displayed an inhibition in vivo at 150 µmol/kg in data set [2] of 18%.

In data set [2], `COC(=O)C1CCCN1C(=O)C(C)c1ccc(CC(C)C)cc1` (stereo not shown) [Compound 8a] gave an inhibition in vivo at 150 µmol/kg of 20%.

For the compound `COc1cc(COC(=O)CCNC(=O)C(C)c2ccc(CC(C)C)cc2)cc(OC)c1OC` (stereo not shown) [Compound 15, 3,4,5-Trimethoxybenzyl 3-(2-(4-isobutylphenyl)propanamido)propanoate], the melting point lay in the range of 73 to 75 °C. The inhibition in vivo at 150 µmol/kg in data set [2] is 35%. For the same compound, the IC50 at soybean LOX turned out to be 160 µM.

In data set [2], `COC(=O)C1CCCN1C(=O)Cc1c[nH]c2ccccc12` (stereo not shown) [Compound 14a, 1-(2-(1H-indol-3-yl)acetyl)pyrrolidine-2-carboxylic acid (14) methyl ester] came in with an inhibition in vivo at 150 µmol/kg of 0%.

With `COC(=O)CCNC(=O)C(C)c1ccc(CC(C)C)cc1` (stereo not shown) [Compound 5a], in data set [2], the inhibition in vivo at 150 µmol/kg was determined as 14%.

For `COc1cc(COC(=O)C2CCCN2C(=O)C(C)c2cccc(C(=O)c3ccccc3)c2)cc(OC)c1OC` (stereo not shown) [Compound 19, 3,4,5-Trimethoxybenzyl 1-(2-(3-benzoylphenyl)propanoyl)pyrrolidine-2 carboxylate], the inhibition in vivo at 150 µmol/kg in data set [2] came to 51%. At soybean LOX, this compound yielded a half-maximal inhibitory concentration (IC50) of 140 µM.

Compound `COc1cc(COC(=O)C(C)NC(=O)Cc2c[nH]c3ccccc23)cc(OC)c1OC` (stereo not shown) [Compound 23, 3,4,5-Trimethoxybenzyl 2-(2-(1H-indol-3-yl)acetamido)propanoate] gave an inhibition in vivo at 150 µmol/kg in data set [2] of 40.5%. Besides, on soybean LOX (at 150 μΜ), the “% inhibition of lipoxygenase” value is 15%.

`COc1cc(COC(=O)C2CCCN2C(=O)C(C)c2ccc(CC(C)C)cc2)cc(OC)c1OC` (stereo not shown) [Compound 18] registered a melting point of 85 to 87 °C. Besides, in data set [2], the inhibition in vivo at 150 µmol/kg is 49%. The same compound returned an IC50 on soybean LOX of 83 µM.

In turn, `COc1cc(COC(=O)C2CCCN2C(=O)Cc2c[nH]c3ccccc23)cc(OC)c1OC` (stereo not shown) [Compound 24, 3,4,5-Trimethoxybenzyl1-(2-(1H-indol-3-yl)acetyl)pyrrolidine-2carboxylate] showed a melting point of 58 to 60 °C. Further, the inhibition in vivo at 150 µmol/kg in data set [2] was found to be 0%. The compound further returned an IC50 against soybean LOX of 128 µM.

`COc1ccc2cc([C@H](C)C(=O)O)ccc2c1` [Naproxen] yielded an inhibition in vivo at 150 µmol/kg in data set [2] of 11%. Also, the “COX-2 % Inhibition” value is given as 17% in the data set on human recombinant COX-2 and “weak inhibitor” in the data set on human recombinant COX-2 (listed as naproxen). The entries for the “COX-1 % Inhibition” value with ovine COX-1 and in the data set on ovine COX-1 (listed as naproxen) were 34% and “mild activity”, respectively.

Usually inhibition in vivo stands for the percentage by which the read-out fell short of the control. Higher therefore signals strong suppression. The melting point is the temperature of the solid-liquid transition. As usually defined, the IC50 is the midpoint of a concentration-inhibition curve. Lower therefore signals greater potency.
